Where two headings read alike, the source gives them in different places.
Assays:
[1] = PBPK model (SimCYP) prediction of tegoprazan PK; design: species or system human; conditions: estimated from clinical data, single dose 50 mg
Source text: (§1) A PBPK model of tegoprazan was built and verified by both the bottom-up approach using in vitro data for maintaining a mechanistic PBPK structure and the top-down approach using clinical PK results for maintaining a descriptive structure (Figure 1). The initial PBPK model of tegoprazan was constructed using physicochemical properties (e.g., molecular weight, log P, pKa), in vitro data (e.g., permeability, intrinsic clearance), and in vivo data (e.g., renal clearance) provided by HK inno.N Corp. (Seoul, Korea). The commercially available software SimCYP simulator v19 (SimCYP Limited, Certara, Sheffield, UK) was used to build the PBPK model and to generate the PK simulations. The PBPK-model-predicted PK profiles and parameters of tegoprazan were compared with the observed PK profiles and parameters from previously conducted clinical studies (Supplementary Table S1). The specific model configuration related to absorption, distribution, and elimination is described below.
The advanced dissolution, absorption, and metabolism model was used. The unbound fraction of the drug in enterocytes (fuGut) and the human jejunum effective permeability (Peff,man) were predicted because these values were not routinely measured (Table 1). […]
The elimination of the PBPK model consisted of enzyme kinetic and renal clearance (Table 1). Intrinsic clearances (CLint) of tegoprazan by various CYPs were determined by an in vitro study that measured the fraction of CLint inhibited by adding the inhibitors of CYP1A2, CYP2C9, CYP2C19, CYP2D6, and CYP3A to human liver microsomes (in-house data). […]
The PBPK model of tegoprazan as a single agent was verified using data from clinical studies of single- and multiple-dose administration of different dosages of tegoprazan. To verify the PK predictability of the PBPK model, the model-predicted PK profiles and parameters were compared with the observed PK profiles and parameters measured in clinical studies. […]

CYP2C9 = target: T1, CYP2C9 (Homo sapiens, UniProt P11712); assay: Intrinsic clearance in human liver microsomes with CYP inhibitors; format: in vitro ADME
T1 construct: from tissue; host or cells: human liver microsomes
T1 sequence (P11712 whole entry): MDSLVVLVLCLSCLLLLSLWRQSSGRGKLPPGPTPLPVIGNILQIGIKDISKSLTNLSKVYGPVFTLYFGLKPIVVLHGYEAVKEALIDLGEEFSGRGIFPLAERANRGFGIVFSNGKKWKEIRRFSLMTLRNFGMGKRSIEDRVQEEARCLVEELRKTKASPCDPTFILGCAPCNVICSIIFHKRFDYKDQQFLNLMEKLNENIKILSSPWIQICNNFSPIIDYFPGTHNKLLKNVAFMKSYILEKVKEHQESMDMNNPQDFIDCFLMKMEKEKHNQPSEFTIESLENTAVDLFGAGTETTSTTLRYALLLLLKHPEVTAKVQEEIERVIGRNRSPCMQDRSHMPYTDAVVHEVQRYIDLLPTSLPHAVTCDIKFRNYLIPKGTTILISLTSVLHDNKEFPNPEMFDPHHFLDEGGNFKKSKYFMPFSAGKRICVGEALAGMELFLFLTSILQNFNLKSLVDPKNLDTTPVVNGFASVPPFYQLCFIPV
Method: (§2) The elimination of the PBPK model consisted of enzyme kinetic and renal clearance (Table 1). Intrinsic clearances (CLint) of tegoprazan by various CYPs were determined by an in vitro study that measured the fraction of CLint inhibited by adding the inhibitors of CYP1A2, CYP2C9, CYP2C19, CYP2D6, and CYP3A to human liver microsomes (in-house data). Based on the in vitro data, an in vitro to in vivo extrapolation (IVIVE) approach was used to estimate the in vivo CLint by each CYP enzyme. Renal clearance as an additional clearance was used from the result of a single-oral-dose study of tegoprazan 100 mg.

CYP2D6 = target: T2, CYP2D6 (Homo sapiens, UniProt P10635); assay: as above; format: in vitro ADME
T2 construct: from tissue; host or cells: human liver microsomes
T2 sequence (P10635 whole entry): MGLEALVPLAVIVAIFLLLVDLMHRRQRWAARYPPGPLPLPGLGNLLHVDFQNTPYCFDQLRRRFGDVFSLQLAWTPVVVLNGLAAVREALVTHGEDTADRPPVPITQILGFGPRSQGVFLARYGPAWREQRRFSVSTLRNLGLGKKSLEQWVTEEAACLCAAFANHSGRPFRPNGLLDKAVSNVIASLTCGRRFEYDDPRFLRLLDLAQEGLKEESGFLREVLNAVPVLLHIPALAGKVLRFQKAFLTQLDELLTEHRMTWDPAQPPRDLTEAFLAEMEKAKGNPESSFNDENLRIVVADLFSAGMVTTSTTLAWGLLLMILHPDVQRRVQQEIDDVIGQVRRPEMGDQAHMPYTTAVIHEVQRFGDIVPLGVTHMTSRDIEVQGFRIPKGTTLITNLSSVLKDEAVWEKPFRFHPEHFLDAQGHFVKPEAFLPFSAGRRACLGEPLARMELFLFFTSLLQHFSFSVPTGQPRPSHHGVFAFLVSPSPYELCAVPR
Method: as §2

CYP1A2 = target: T3, CYP1A2 (Homo sapiens, UniProt P05177); assay: as above; format: in vitro ADME
T3 construct: from tissue; host or cells: human liver microsomes
T3 sequence (P05177 1-516): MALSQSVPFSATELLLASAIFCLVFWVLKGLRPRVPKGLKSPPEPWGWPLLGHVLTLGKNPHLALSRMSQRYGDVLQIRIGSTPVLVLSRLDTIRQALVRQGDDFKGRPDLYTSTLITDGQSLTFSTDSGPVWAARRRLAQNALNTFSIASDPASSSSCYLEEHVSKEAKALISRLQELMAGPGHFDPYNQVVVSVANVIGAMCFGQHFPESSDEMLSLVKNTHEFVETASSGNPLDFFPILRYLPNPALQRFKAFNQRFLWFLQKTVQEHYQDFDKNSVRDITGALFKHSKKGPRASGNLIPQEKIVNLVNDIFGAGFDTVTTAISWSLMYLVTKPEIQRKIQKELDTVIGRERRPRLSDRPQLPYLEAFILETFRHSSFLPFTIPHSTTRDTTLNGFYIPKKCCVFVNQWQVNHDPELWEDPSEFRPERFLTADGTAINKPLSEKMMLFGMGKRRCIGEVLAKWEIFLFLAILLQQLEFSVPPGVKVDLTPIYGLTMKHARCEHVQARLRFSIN
Method: as §2

CYP2C19 = target: T4, CYP2C19 (Homo sapiens, UniProt P33261); assay: as above; format: in vitro ADME
T4 construct: from tissue; host or cells: human liver microsomes
T4 sequence (P33261 whole entry): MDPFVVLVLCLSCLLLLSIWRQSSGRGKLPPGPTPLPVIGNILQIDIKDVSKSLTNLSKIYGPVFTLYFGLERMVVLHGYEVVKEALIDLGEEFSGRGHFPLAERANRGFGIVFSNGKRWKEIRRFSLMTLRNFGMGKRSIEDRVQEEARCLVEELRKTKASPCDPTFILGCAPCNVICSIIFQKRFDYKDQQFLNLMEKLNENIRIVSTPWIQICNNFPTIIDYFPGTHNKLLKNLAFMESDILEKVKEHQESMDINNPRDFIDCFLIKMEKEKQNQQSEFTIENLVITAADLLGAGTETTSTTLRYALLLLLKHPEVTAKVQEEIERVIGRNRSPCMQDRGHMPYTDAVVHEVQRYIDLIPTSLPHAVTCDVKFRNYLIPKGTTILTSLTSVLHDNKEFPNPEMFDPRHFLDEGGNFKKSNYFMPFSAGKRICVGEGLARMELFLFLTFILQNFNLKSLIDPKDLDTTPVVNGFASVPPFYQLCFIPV
Method: as §2

[2] = Physicochemical properties (log P, pKa), experimental data; conditions: for pKa: ampholyte
Source text: as §1

[3] = Blood:plasma partition ratio and fraction unbound in plasma, experimental data; format: in vitro ADME
[4] = cited from earlier work; for AUCτ Obs. / Cmax Obs. / AUCinf Obs.: mean; for Tmax Obs.: median
[5] = cited from earlier work
[6] = multiple oral doses 50 mg once daily for 7 days, ref NCT03009760
[7] = multiple oral doses 100 mg once daily for 7 days, ref NCT03009760
[8] = single oral dose 25 mg, ref NCT03530228
[9] = single oral dose 50 mg, NCT03530228

Compound: Cc1nc2cc(C(=O)N(C)C)cc(O[C@H]3CCOc4cc(F)cc(F)c43)c2[nH]1 [tegoprazan]
- Q (blood flow between central compartment and SAC) [1]: 24.4 L/h
- VSAC (volume of the single adjusted compartment) [1]: 0.66 L/kg
- Kp ([1]; male, human, oral, read-out: Kp scalar): 0.33
- CYP2C9 CLint (CYP2C9): 2.6 μL/min/mg of protein
- CYP2D6 CLint (CYP2D6): 2 μL/min/mg of protein
- CYP1A2 CLint (CYP1A2): 2.5 μL/min/mg of protein
- CYP2C19 CLint (CYP2C19): 3.6 μL/min/mg of protein
- pKa ([2]; read-out: pKa 1): 5.2
- pKa ([2]; read-out: pKa 2): 12
- logP ([2]; octanol/water, read-out: Log P (octanol:water partition coefficient)): 3
- blood plasma ratio ([3]; blood and plasma, read-out: B/P (blood:plasma partition ratio)): 0.868
- fraction unbound ([3]; plasma, read-out: fu (fraction unbound in plasma)): 0.124
- AUCτ Obs. [4, 6]: 2954.9 ng·h/mL
- Cmax Obs. [4, 6]: 842.8 ng/mL
- Tmax Obs. [4, 6]: 1.00 h
- AUCτ Obs. [4, 7]: 4768.4 ng·h/mL
- Cmax Obs. [4, 7]: 1149.7 ng/mL
- Tmax Obs. [4, 7]: 1.25 h
- AUCinf Obs. [4, 8]: 1340.0 ng·h/mL
- Cmax Obs. [4, 8]: 335.6 ng/mL
- Tmax Obs. [4, 8]: 0.75 h
- AUCinf Obs. [4, 9]: 2903.0 ng·h/mL
- Cmax Obs. [4, 9]: 759.1 ng/mL
- Tmax Obs. [4, 9]: 1.00 h
- AUCinf Obs. ([4]; single oral dose 100 mg): 5998.1 ng·h/mL
- Cmax Obs. ([4]; single oral dose 100 mg): 1434.5 ng/mL
- Tmax Obs. ([4]; single oral dose 100 mg): 1.00 h
- apparent clearance [5]: approximately 17.6 L/h
- mean half-life [5]: 3.7 to 6.2 h
- volume of distribution [5]: ~107.9 L
- safety and tolerability ([5]; healthy adults, up to 400 mg single dose and 200 mg multiple doses): safe and tolerable
- increase of systemic exposure with dose ([5]; phase 1 clinical study, healthy adults): dose proportional
- Cmax when administered with food ([5]; previous studies): decreased
- time to reach Cmax when administered with food ([5]; previous studies): delayed
